Molecules are shown by their SMILES. Bounds are passed on as bounds.

The target in assay [1] is Spermine synthase (Rattus norvegicus). Briefly: Inhibition of Spermidine aminopropyltransferase (SAPT) in rat liver.
The target in the next assay is T1, Spermidine synthase (Rattus norvegicus, UniProt Q99MI5).
T1 sequence (Q99MI5 whole entry): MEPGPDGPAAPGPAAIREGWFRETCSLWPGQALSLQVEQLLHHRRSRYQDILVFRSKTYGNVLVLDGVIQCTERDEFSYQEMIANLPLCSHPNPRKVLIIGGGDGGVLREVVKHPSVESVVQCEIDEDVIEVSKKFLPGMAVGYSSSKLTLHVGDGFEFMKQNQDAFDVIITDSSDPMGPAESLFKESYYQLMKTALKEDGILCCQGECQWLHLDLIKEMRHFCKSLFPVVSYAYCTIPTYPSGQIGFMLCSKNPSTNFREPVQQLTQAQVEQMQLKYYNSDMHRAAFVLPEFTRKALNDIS
Description: Inhibition of Putrescine aminopropyltransferase (PAPT) in rat liver.

In assay [2] the target is T2, S-adenosylmethionine decarboxylase proenzyme (Homo sapiens, UniProt P17707).
T2 sequence (P17707 whole entry): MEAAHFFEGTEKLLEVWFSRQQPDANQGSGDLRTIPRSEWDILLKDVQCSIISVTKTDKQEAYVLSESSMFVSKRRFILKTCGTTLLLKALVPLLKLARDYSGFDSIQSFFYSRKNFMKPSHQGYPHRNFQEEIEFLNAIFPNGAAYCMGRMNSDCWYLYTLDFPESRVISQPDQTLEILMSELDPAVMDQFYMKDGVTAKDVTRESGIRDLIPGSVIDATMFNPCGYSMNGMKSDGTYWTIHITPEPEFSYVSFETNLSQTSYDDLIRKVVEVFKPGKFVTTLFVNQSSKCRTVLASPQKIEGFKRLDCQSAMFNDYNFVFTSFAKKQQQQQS
Briefly: Inhibitory activity against S-adenosyl-L-methionine decarboxylase was determined; NI means No inhibition.

The next assay has as its target T3, Ornithine decarboxylase (Rattus norvegicus, UniProt P09057).
T3 sequence (P09057 whole entry): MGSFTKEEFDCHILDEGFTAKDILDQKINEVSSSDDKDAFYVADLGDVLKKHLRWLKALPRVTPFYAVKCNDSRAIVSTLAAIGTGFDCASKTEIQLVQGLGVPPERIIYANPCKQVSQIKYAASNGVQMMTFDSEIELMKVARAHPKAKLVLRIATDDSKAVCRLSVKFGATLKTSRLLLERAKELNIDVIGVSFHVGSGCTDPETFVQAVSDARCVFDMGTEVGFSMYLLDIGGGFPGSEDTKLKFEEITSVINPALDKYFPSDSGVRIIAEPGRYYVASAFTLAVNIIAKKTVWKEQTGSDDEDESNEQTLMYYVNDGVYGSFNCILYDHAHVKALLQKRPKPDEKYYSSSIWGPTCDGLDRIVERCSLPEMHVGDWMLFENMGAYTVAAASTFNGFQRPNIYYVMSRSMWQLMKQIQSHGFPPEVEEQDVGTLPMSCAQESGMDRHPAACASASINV
Description: Inhibition of Ornithine decarboxylase in rat liver; Not inhibited.

With `NCCCNCCCCCC(CCN)SC[C@H]1OC(n2cnc3c(N)ncnc32)[C@H](O)[C@@H]1O` (some centres undefined), the IC50 – broadly, the concentration that inhibits the measured activity by half – in assay [1] was 50 nM; on Spermidine synthase, over 10 µM.

As for `NCCCCNC(CCN)CC[C@H]1OC(n2cnc3c(N)ncnc32)[C@H](O)[C@@H]1O` (some centres undefined), the IC50 entry in assay [2] is reported as “Not Active”; at Ornithine decarboxylase, “No inhibition”.
